Test results taken from US9133148B2, “Carbamate compounds and of making and using same” (Abide Therapeutics, Inc., priority 2012, dated 2015).

Experiments:
Assay type in all cases: biochemical
[1] = target: MAGL (Mus musculus (Mouse), UniProt O35678); experiment: Competitive ABPP, % inhibition at 1 uM, MAGL
Method: (§1) In Vitro Competitive Activity-Based Protein Profiling.
(§2) Proteomes (mouse brain membrane fraction or cell lysates) ([…], 1.0 mg/mL total protein concentration) were preincubated with varying concentrations of inhibitors at 37° C. After 30 min, FP-Rh (1.0 μL, 50 μM in DMSO) was added and the mixture was incubated for another 30 min at 37° C. Reactions were quenched with SDS loading buffer (50 μL—4×) and run on SDS-PAGE.

[2] = target: FAAH (Mus musculus (Mouse), UniProt O08914); experiment: Competitive ABPP, % inhibition at 1 uM, FAAH
Method: as §1
as §2, with “SDS-PAGE. Following gel imaging, serine hydrolase activity was determined by measuring fluorescent intensity of gel bands corresponding to MAGL, ABHD6 and FAAH using ImageJ 1.43u software.” for “SDS-PAGE.”

[3] = target: ABHD6 (Mus musculus (Mouse), UniProt Q8R2Y0); experiment: Competitive ABPP, % inhibition at 1 uM, ABHD6
Method: as §1, §2

Chain of ABHD6 (Q8R2Y0 whole entry): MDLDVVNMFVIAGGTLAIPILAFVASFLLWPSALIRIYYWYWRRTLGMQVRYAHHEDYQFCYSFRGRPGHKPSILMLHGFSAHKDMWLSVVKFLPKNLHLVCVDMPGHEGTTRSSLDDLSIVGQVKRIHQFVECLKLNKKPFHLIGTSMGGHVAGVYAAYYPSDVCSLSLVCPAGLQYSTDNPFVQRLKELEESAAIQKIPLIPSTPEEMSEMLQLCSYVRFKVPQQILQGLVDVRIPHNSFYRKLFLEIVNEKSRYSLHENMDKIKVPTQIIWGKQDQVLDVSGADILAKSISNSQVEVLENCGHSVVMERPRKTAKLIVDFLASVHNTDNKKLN
Chain of FAAH (O08914 whole entry): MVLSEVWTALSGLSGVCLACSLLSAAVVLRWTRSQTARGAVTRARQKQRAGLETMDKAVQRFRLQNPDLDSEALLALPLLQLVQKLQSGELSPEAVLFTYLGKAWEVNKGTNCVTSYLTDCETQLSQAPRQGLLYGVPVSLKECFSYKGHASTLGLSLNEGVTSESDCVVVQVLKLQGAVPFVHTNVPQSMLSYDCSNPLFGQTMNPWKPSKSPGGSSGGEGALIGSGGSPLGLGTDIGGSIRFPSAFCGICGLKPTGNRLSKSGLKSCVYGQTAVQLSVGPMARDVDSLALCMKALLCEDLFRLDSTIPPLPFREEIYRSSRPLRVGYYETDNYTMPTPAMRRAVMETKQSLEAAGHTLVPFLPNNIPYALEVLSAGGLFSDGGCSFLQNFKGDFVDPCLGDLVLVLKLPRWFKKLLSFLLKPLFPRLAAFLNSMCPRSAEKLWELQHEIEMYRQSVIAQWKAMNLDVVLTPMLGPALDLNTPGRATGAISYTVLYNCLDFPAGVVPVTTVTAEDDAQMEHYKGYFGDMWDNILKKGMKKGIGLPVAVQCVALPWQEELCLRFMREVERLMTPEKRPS
Chain of MAGL (O35678 whole entry): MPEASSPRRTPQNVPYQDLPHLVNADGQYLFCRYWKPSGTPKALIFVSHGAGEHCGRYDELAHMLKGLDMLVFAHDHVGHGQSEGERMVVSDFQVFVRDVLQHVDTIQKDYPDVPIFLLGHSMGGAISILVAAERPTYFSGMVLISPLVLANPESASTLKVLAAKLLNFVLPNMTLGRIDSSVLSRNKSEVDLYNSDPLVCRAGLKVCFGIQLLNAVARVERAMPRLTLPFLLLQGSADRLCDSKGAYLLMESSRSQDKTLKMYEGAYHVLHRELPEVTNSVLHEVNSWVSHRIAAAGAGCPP

## O=C(OC(C(F)(F)F)C(F)(F)F)N1CCN(Cc2ccc(N3CCOCC3)cc2C(F)(F)F)CC1 [Example 9aj, 1,1,1,3,3,3-hexafluoropropan-2-yl 4-[[4-(morpholin-4-yl)-2-(trifluoromethyl)phenyl]methyl]piperazine-1-carboxylate]
[1]
  inhibition at 1 µM: 25 to 75%
[2]
  inhibition at 1 µM: < 25%
[3]
  inhibition at 1 µM: 25 to 75%

## O=C(OC(C(F)(F)F)C(F)(F)F)N1CCN(Cc2ccc(N3CCOCC3)cc2OC(F)(F)F)CC1 [Example 9ak, 1,1,1,3,3,3-hexafluoropropan-2-yl 4-[[4-(morpholin-4-yl)-2-(trifluoromethoxy)phenyl]methyl]piperazine-1-carboxylate]
[1]
  inhibition at 1 µM: > 75%
[2]
  inhibition at 1 µM: < 25%
[3]
  inhibition at 1 µM: 25 to 75%

## C[C@H]1CN(Cc2ccc(N3CCOCC3)cc2Cl)CCN1C(=O)OC(C(F)(F)F)C(F)(F)F [Example 9al, 1,1,1,3,3,3-hexafluoropropan-2-yl(2S)-4-[[2-chloro-4-(morpholin-4-yl)phenyl]methyl]-2-methylpiperazine-1-carboxylate]
[1]
  inhibition at 1 µM: 25 to 75%
[2]
  inhibition at 1 µM: < 25%
[3]
  inhibition at 1 µM: 25 to 75%

## C[C@@H]1CN(Cc2ccc(N3CCOCC3)cc2Cl)CCN1C(=O)OC(C(F)(F)F)C(F)(F)F [Example 9am, 1,1,1,3,3,3-hexafluoropropan-2-yl(2R)-4-[[2-chloro-4-(morpholin-4-yl)phenyl]methyl]-2-methylpiperazine-1-carboxylate]
[1]
  inhibition at 1 µM: < 25%
[2]
  inhibition at 1 µM: < 25%
[3]
  inhibition at 1 µM: < 25%

## CC(C)c1cc(-c2ccccc2)ccc1CN1CCN(C(=O)OC(C(F)(F)F)C(F)(F)F)CC1 [Example 9at, 1,1,1,3,3,3-hexafluoropropan-2-yl 4-((3-isopropyl-[1,1′-biphenyl]-4-yl)methyl)piperazine-1-carboxylate]
[1]
  inhibition at 1 µM: 25 to 75%
[2]
  inhibition at 1 µM: < 25%
[3]
  inhibition at 1 µM: < 25%

## CC(C)c1cc(N2CCOCC2)ccc1CN1CCN(C(=O)OC(C(F)(F)F)C(F)(F)F)CC1 [Example 9bc, 1,1,1,3,3,3-hexafluoropropan-2-yl 4-[[4-(morpholin-4-yl)-2-(propan-2-yl)phenyl]methyl]piperazine-1-carboxylate]
[1]
  inhibition at 1 µM: 25 to 75%
[2]
  inhibition at 1 µM: < 25%
[3]
  inhibition at 1 µM: < 25%

## O=C(OC(C(F)(F)F)C(F)(F)F)N1CCN(Cc2ccc(C(=O)N3CCCC3)cc2Cl)CC1 [Example 9bd, 1,1,1,3,3,3-hexafluoropropan-2-yl 4-(2-chloro-4-(pyrrolidine-1-carbonyl)benzyl)piperazine-1-carboxylate]
[1]
  inhibition at 1 µM: 25 to 75%
[2]
  inhibition at 1 µM: < 25%
[3]
  inhibition at 1 µM: 25 to 75%

## O=C(OC(C(F)(F)F)C(F)(F)F)N1CCN(Cc2cccc(Cl)c2C(=O)N2CCOCC2)CC1 [Example 9bf, 1,1,1,3,3,3-hexafluoropropan-2-yl 4-(3-chloro-2-(morpholine-4-carbonyl)benzyl)piperazine-1-carboxylate]
[1]
  inhibition at 1 µM: 25 to 75%
[2]
  inhibition at 1 µM: < 25%
[3]
  inhibition at 1 µM: < 25%

## C[C@H]1CN(Cc2ccc(N3CCOCC3)cc2F)CCN1C(=O)OC(C(F)(F)F)C(F)(F)F [Example 9i, 1,1,1,3,3,3-hexafluoropropan-2-yl(2S)-4-[[2-fluoro-4-(morpholin-4-yl)phenyl]methyl]-2-methylpiperazine-1-carboxylate]
[1]
  inhibition at 1 µM: 25 to 75%
[2]
  inhibition at 1 µM: < 25%
[3]
  inhibition at 1 µM: 25 to 75%

## C[C@H]1CN(Cc2ccc(N3CCOCC3)cc2C(F)(F)F)CCN1C(=O)OC(C(F)(F)F)C(F)(F)F [Example 9j, 1,1,1,3,3,3-hexafluoropropan-2-yl(2S)-2-methyl-4-[[4-(morpholin-4-yl)-2-(trifluoromethyl)phenyl]methyl]piperazine-1-carboxylate]
[1]
  inhibition at 1 µM: 25 to 75%
[2]
  inhibition at 1 µM: < 25%
[3]
  inhibition at 1 µM: 25 to 75%

## C[C@@H]1CN(Cc2ccc(N3CCOCC3)cc2F)CCN1C(=O)OC(C(F)(F)F)C(F)(F)F [Example 9k, 1,1,1,3,3,3-hexafluoropropan-2-yl(2R)-4-[[2-fluoro-4-(morpholin-4-yl)phenyl]methyl]-2-methylpiperazine-1-carboxylate]
[1]
  inhibition at 1 µM: < 25%
[2]
  inhibition at 1 µM: < 25%
[3]
  inhibition at 1 µM: < 25%

## C[C@@H]1CN(Cc2ccc(N3CCOCC3)cc2C(F)(F)F)CCN1C(=O)OC(C(F)(F)F)C(F)(F)F [Example 9l, 1,1,1,3,3,3-hexafluoropropan-2-yl(2R)-2-methyl-4-[[4-(morpholin-4-yl)-2-(trifluoromethyl)phenyl]methyl]piperazine-1-carboxylate]
[1]
  inhibition at 1 µM: < 25%
[2]
  inhibition at 1 µM: < 25%
[3]
  inhibition at 1 µM: < 25%

## O=C(OC(C(F)(F)F)C(F)(F)F)N1CCN(Cc2c(Cl)cccc2N2CCCC2)CC1 [Example 9m, 1,1,1,3,3,3-hexafluoropropan-2-yl 4-[[2-chloro-6-(pyrrolidin-1-yl)phenyl]methyl]piperazine-1-carboxylate]
[1]
  inhibition at 1 µM: 25 to 75%
[2]
  inhibition at 1 µM: < 25%
[3]
  inhibition at 1 µM: 25 to 75%

## COc1ccc(-c2cc(CN3CCN(C(=O)OC(C(F)(F)F)C(F)(F)F)CC3)no2)cc1 [Example 10a, 1,1,1,3,3,3-hexafluoropropan-2-yl 4-((5-(4-methoxyphenyl)isoxazol-3-yl)methyl)piperazine-1-carboxylate]
[1]
  inhibition at 1 µM: > 75%
[2]
  inhibition at 1 µM: < 25%
[3]
  inhibition at 1 µM: 25 to 75%

## CC1CN(C(=O)OC(C(F)(F)F)C(F)(F)F)CCN1Cc1ccc(-c2ccccc2)cc1 (stereo not drawn) [Example 11a, 1,1,1,3,3,3-hexafluoropropan-2-yl 3-methyl-4-[(4-phenylphenyl)methyl]piperazine-1-carboxylate]
[1]
  inhibition at 1 µM: 25 to 75%
[2]
  inhibition at 1 µM: < 25%
[3]
  inhibition at 1 µM: 25 to 75%

## Cc1cc(-c2ccc(CN3CCN(C(=O)OC(C(F)(F)F)C(F)(F)F)CC3)c(F)c2)cc(C)n1 [Example 11aa, 1,1,1,3,3,3-hexafluoropropan-2-yl 4-[[4-(2,6-dimethylpyridin-4-yl)-2-fluorophenyl]methyl]piperazine-1-carboxylate]
[1]
  inhibition at 1 µM: > 75%
[2]
  inhibition at 1 µM: < 25%
[3]
  inhibition at 1 µM: 25 to 75%

## Cc1cnccc1-c1ccc(CN2CCN(C(=O)OC(C(F)(F)F)C(F)(F)F)CC2)c(F)c1 [Example 11ab, 1,1,1,3,3,3-hexafluoropropan-2-yl 4-[[2-fluoro-4-(3-methylpyridin-4-yl)phenyl]methyl]piperazine-1-carboxylate]
[1]
  inhibition at 1 µM: > 75%
[2]
  inhibition at 1 µM: < 25%
[3]
  inhibition at 1 µM: 25 to 75%

## Cc1cccc(-c2ccc(CN3CCN(C(=O)OC(C(F)(F)F)C(F)(F)F)CC3)c(F)c2)n1 [Example 11ac, 1,1,1,3,3,3-hexafluoropropan-2-yl 4-[[2-fluoro-4-(6-methylpyridin-2-yl)phenyl]methyl]piperazine-1-carboxylate]
[1]
  inhibition at 1 µM: > 75%
[2]
  inhibition at 1 µM: < 25%
[3]
  inhibition at 1 µM: 25 to 75%

## Cc1cccc(-c2ccc(CN3CCN(C(=O)OC(C(F)(F)F)C(F)(F)F)CC3)nc2C)c1 [Example 11ad, 1,1,1,3,3,3-hexafluoropropan-2-yl 4-[[6-methyl-5-(3-methylphenyl)pyridin-2-yl]methyl]piperazine-1-carboxylate]
[1]
  inhibition at 1 µM: > 75%
[2]
  inhibition at 1 µM: < 25%
[3]
  inhibition at 1 µM: 25 to 75%

## Cc1ccccc1-c1ccc(CN2CCN(C(=O)OC(C(F)(F)F)C(F)(F)F)CC2)c(C)n1 [Example 11b, 1,1,1,3,3,3-hexafluoropropan-2-yl 4-[[2-methyl-6-(2-methylphenyl)pyridin-3-yl]methyl]piperazine-1-carboxylate]
[1]
  inhibition at 1 µM: > 75%
[2]
  inhibition at 1 µM: < 25%
[3]
  inhibition at 1 µM: 25 to 75%

## Cc1nc(-c2ccccc2F)ccc1CN1CCN(C(=O)OC(C(F)(F)F)C(F)(F)F)CC1 [Example 11c, 1,1,1,3,3,3-hexafluoropropan-2-yl 4-[[6-(2-fluorophenyl)-2-methylpyridin-3-yl]methyl]piperazine-1-carboxylate]
[1]
  inhibition at 1 µM: 25 to 75%
[2]
  inhibition at 1 µM: < 25%
[3]
  inhibition at 1 µM: 25 to 75%

## Cc1cccc(-c2ccc(CN3CCN(C(=O)OC(C(F)(F)F)C(F)(F)F)CC3)c(C)n2)c1 [Example 11d, 1,1,1,3,3,3-hexafluoropropan-2-yl 4-[[2-methyl-6-(3-methylphenyl)pyridin-3-yl]methyl]piperazine-1-carboxylate]
[1]
  inhibition at 1 µM: > 75%
[2]
  inhibition at 1 µM: < 25%
[3]
  inhibition at 1 µM: 25 to 75%

## Cc1nc(-c2cccc(F)c2)ccc1CN1CCN(C(=O)OC(C(F)(F)F)C(F)(F)F)CC1 [Example 11e, 1,1,1,3,3,3-hexafluoropropan-2-yl 4-[[6-(3-fluorophenyl)-2-methylpyridin-3-yl]methyl]piperazine-1-carboxylate]
[1]
  inhibition at 1 µM: > 75%
[2]
  inhibition at 1 µM: < 25%
[3]
  inhibition at 1 µM: 25 to 75%

## Cc1cc(-c2ccc(CN3CCN(C(=O)OC(C(F)(F)F)C(F)(F)F)CC3)c(F)c2)ccn1 [Example 11g, 1,1,1,3,3,3-hexafluoropropan-2-yl 4-[[2-fluoro-4-(2-methylpyridin-4-yl)phenyl]methyl]piperazine-1-carboxylate]
[1]
  inhibition at 1 µM: > 75%
[2]
  inhibition at 1 µM: < 25%
[3]
  inhibition at 1 µM: > 75%

## Cc1cccc(-c2ccc(CN3CCN(C(=O)OC(C(F)(F)F)C(F)(F)F)CC3)c(C)c2)c1 [Example 11h, 1,1,1,3,3,3-hexafluoropropan-2-yl 4-[[2-methyl-4-(3-methylphenyl)phenyl]methyl]piperazine-1-carboxylate]
[1]
  inhibition at 1 µM: 25 to 75%
[2]
  inhibition at 1 µM: < 25%
[3]
  inhibition at 1 µM: < 25%
